Source: the supplement of paper PMC10307832

Assays:
Assay in all cases: relative viability (nuclei count vs DMSO), 5 days (fraction); higher = more cells survive
[1] = compound: CC(C)CCN1c2nc(Nc3cc(F)c(O)c(F)c3)ncc2N(C)C(=O)C1C [BI-D1870] + O=C(c1cc(Cc2n[nH]c(=O)c3ccccc23)ccc1F)N1CCN(C(=O)C2CC2)CC1 [Olaparib] (partner 8 µM)
Outline: (§1)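 Relative viability equals treated-well nuclei counts divided by vehicle-well nuclei counts. Counts came from 4× images of lung cancer cell lines grown in 1536-well plates for 5 days after pin-tool dosing on the day after seeding. Dosing used one drug alone or a fixed anchor-drug dose plus five library-drug doses (not always all listed) in √10 steps, and values are medians of duplicate plates.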

[2] = compound: CC(C)CCN1c2nc(Nc3cc(F)c(O)c(F)c3)ncc2N(C)C(=O)C1C [BI-D1870] + CS(=O)(=O)CCNCc1ccc(-c2ccc3ncnc(Nc4ccc(OCc5cccc(F)c5)c(Cl)c4)c3c2)o1 [Lapatinib] (partner 2 µM)
Outline: as §1

[3] = compound: CC(C)CCN1c2nc(Nc3cc(F)c(O)c(F)c3)ncc2N(C)C(=O)C1C [BI-D1870] + Cc1cc(Nc2cc(N3CCN(C)CC3)nc(Sc3ccc(NC(=O)C4CC4)cc3)n2)n[nH]1 [Tozasertib] (partner 0.1 µM)
Outline: as §1

[4] = compound: CC(C)CCN1c2nc(Nc3cc(F)c(O)c(F)c3)ncc2N(C)C(=O)C1C [BI-D1870] + CC(C)C[C@H](NC(=O)[C@H](Cc1ccccc1)NC(=O)c1cnccn1)B(O)O [Bortezomib] (partner 0.002 µM)
Outline: as §1

Cell Line	relative viability ([1]; first compound 0.04 µM)	relative viability ([1]; first compound 0.1265 µM)	relative viability ([1]; first compound 0.4 µM)	relative viability ([1]; first compound 1.265 µM)	relative viability ([1]; first compound 4 µM)	relative viability ([2]; first compound 0.04 µM)	relative viability ([2]; first compound 0.1265 µM)	relative viability ([2]; first compound 0.4 µM)	relative viability ([2]; first compound 1.265 µM)	relative viability ([2]; first compound 4 µM)	relative viability ([3]; first compound 0.04 µM)	relative viability ([3]; first compound 0.1265 µM)	relative viability ([3]; first compound 0.4 µM)	relative viability ([3]; first compound 1.265 µM)	relative viability ([3]; first compound 4 µM)	relative viability ([4]; first compound 0.04 µM)	relative viability ([4]; first compound 0.1265 µM)	relative viability ([4]; first compound 0.4 µM)	relative viability ([4]; first compound 1.265 µM)	relative viability ([4]; first compound 4 µM)
NCI-H647	0.747	0.447	0.579	0.496	0.359	1.26	0.927	1.02	1.03	0.671	0.399	0.251	0.442	0.385	0.138	1.02	0.857	1.08	1.31	0.743
NCI-H2023	0.504	0.444	0.4	0.44	0.252	0.903	0.745	0.886	0.764	0.59	0.308	0.265	0.253	0.227	0.164	1.2	0.901	0.957	0.95	0.647
NCI-H23	0.307	0.263	0.294	0.301	0.212	1.41	0.984	1.04	1.31	0.664	0.433	0.26	0.267	0.314	0.214	1.44	0.85	1.16	1.03	0.529
NCI-H520	0.336	0.355	0.295	0.246	0.162	1	0.714	0.846	0.619	0.704	0.508	0.441	0.44	0.358	0.36	0.618	0.521	0.525	0.542	0.309
NCI-H460	0.492	0.384	0.323	0.436	0.179	1.28	0.823	0.941	0.837	0.586	0.467	0.0966	0.104	0.0609	0.0499	1.45	1.01	1.06	0.686	0.51
EKVX	0.916	0.789	0.805	0.969	0.721	0.236	0.18	0.195	0.223	0.2	0.433	0.379	0.378	0.287	0.206	1.14	1.1	0.938	1.15	1.05
EPLC-272H	0.692	0.804	0.692	0.381	0.204	0.878	0.879	0.734	1.01	0.852	0.37	0.242	0.232	0.247	0.238	0.887	0.99	1.01	1.1	0.772
NCI-H2126	0.97	0.928	0.895	0.885	0.859	0.814	0.741	0.768	0.85	0.693	0.899	0.794	0.78	0.722	0.538	1.12	1.1	1.06	1.14	1.05
